From patent US20220363689A1, “INHIBITOR OF BTK AND MUTANTS THEREOF” (Newave Pharmaceutical Inc., priority 2019, published 2022) come the findings set out here.

Some results are limits rather than exact numbers.

For one series, the target named is T1, TXK (Homo sapiens, UniProt P42681).
T1 sequence (P42681 1-527): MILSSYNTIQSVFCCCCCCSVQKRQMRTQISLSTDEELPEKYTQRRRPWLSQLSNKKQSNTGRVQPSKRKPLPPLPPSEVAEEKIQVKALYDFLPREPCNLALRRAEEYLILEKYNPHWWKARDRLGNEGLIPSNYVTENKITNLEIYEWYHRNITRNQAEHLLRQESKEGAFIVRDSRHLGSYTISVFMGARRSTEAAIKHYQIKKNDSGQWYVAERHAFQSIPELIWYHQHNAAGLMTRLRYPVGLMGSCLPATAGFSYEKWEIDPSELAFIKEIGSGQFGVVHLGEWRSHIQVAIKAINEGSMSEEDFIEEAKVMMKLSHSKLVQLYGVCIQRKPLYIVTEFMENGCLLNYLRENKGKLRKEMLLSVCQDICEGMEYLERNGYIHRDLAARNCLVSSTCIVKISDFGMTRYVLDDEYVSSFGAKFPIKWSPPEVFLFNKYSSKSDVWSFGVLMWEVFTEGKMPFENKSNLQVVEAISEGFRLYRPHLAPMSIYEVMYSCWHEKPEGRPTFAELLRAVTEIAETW
Kind of series: Caliper-based kinase assay, off-target TXK. It is filed as biochemical. As to conditions: Cys-481 homologous kinase panel. From the text:
(§1) A Caliper-based kinase assay (Caliper Life Sciences, Hopkinton, Mass.) was used to measure inhibition of kinase activity of compounds of the present disclosure. […]

Series [1] has as its target T2, WT BTK (Homo sapiens, UniProt Q06187). As to the kind of experiment: Caliper-based kinase assay, WT BTK. It is filed as biochemical. The settings on record: 0.5 nM enzyme, ATP 16 μM, room temperature 3 h; read-out: WT BTK IC50 (nM) (irreversible inhibition). The protocol:
A Caliper-based kinase assay (Caliper Life Sciences, Hopkinton, Mass.) was used to measure inhibition of WT and […] Btk kinase activity of a compound of the present disclosure. […] The reaction was then terminated with EDTA, final concentration 20 mM and the phosphorylated reaction product was quantified on a Caliper Desktop Profiler (Caliper LabChip 3000).

Series [2] concerns the target T2, WT BTK. As to the kind of experiment: In vitro dialysis assay (irreversibility assay), WT BTK. It is filed as biochemical. The settings on record: reversible or irreversible/covalent inhibition after 24 h dialysis. In a few lines:
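Compound-BTK complex was dialyzed 24 hr against […] (cumulative factor >160,000×). Residual activity was then […] and 1 mM substrate peptide and compared with non-dialyzed samples. Buffer: 100 mM HEPES pH 7.5, 5 mM MgCl2, 1 mM DTT, BSA, Triton X-100.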

The target of a further series is BTK (Homo sapiens, UniProt Q06187). Kind of series: Caliper-based kinase assay, Cys-containing kinase panel: BTK. The settings on record: for IC50: Cys-481 homologous kinase panel. It is filed as biochemical. From the text:
A Caliper-based kinase assay (Caliper Life Sciences, Hopkinton, Mass.) was used to measure inhibition of kinase activity of compounds of the present disclosure.

For another series, the target named is HER4 (Homo sapiens, UniProt Q15303). As to the kind of experiment: Caliper-based kinase assay, off-target HER4. It is filed as biochemical. The settings on record: Cys-481 homologous kinase panel.
Chain of HER4 (Q15303 26-1308): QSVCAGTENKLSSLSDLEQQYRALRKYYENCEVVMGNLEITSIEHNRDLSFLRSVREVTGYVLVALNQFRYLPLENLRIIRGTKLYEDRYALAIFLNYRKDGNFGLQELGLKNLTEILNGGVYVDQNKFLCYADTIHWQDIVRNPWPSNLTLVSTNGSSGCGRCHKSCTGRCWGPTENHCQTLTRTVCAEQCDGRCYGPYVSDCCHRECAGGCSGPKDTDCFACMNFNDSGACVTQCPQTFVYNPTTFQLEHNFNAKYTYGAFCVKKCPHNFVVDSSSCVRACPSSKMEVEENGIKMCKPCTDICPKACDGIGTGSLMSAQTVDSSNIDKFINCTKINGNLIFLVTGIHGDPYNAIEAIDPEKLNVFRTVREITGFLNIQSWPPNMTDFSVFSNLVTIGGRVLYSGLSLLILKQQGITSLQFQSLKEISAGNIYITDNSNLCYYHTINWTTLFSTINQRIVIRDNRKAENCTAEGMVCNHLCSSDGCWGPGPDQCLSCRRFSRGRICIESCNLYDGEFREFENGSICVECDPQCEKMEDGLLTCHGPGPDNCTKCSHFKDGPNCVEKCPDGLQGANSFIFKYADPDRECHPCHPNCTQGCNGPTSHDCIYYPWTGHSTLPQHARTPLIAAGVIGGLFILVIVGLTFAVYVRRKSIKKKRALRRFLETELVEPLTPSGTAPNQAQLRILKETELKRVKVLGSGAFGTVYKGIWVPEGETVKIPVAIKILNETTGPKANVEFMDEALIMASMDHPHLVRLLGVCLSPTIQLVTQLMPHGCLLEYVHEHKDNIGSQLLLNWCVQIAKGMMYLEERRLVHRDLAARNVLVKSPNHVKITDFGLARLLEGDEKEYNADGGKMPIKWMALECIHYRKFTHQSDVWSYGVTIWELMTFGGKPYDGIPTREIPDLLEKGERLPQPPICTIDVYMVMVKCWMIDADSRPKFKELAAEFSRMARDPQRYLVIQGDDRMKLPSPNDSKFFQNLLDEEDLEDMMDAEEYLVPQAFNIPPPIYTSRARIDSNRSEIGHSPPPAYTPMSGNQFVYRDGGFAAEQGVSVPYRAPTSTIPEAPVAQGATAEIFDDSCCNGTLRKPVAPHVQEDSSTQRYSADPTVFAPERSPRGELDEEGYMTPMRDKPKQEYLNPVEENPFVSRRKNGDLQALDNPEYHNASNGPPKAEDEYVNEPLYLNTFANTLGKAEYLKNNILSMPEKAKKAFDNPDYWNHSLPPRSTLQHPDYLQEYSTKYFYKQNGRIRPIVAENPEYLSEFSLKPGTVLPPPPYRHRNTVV
From the text: as §1

A short description of a further series: Mice PK study. The settings on record: plasma, CD-1 mouse, po, 10 mg/kg; for half-life: read-out: t ½ (converted). It is filed as in vivo. The protocol:
The pharmacokinetics of compounds were evaluated in CD-1 mouse via Intravenous and Oral Administration. The IV dose was administered as a slow bolus in the Jugular vein, and oral doses were administered by gavage. The formulation for IV dosing is 5% DMSO in 20% HPBCD in water, and the PO formulation is 2.5% DMSO, 10% EtOH, 20% Cremphor EL, 67.5% D5W. The PK time point for the IV arm was 5, 15, 30 min, 1, 2, 4, 6, 8, 12, 24 hours post dose, and for PO arm was 15, 30 min, 1, 2, 4, 6, 8, 12, 24 hours post dose. Approximately 0.03 mL blood was collected at each time point. Blood of each sample was transferred into plastic micro centrifuge tubes containing EDTA-K2 and plasma was collected within 15 min by centrifugation at 4000 g for 5 minutes in a 4° C. centrifuge. Plasma samples were stored in polypropylene tubes. The samples were stored in a freezer at −75±15° C. prior to analysis. Concentrations of compounds in the plasma samples were analyzed using a LC-MS/MS method. WinNonlin (Phoenix™, version 6.1) or other similar software was used for pharmacokinetic calculations. The following pharmacokinetic parameters were calculated, whenever possible from the plasma concentration versus time data: IV administration: C0, CL, Vd, T1/2, AUCinf, AUClast, MRT, Number of Points for Regression; PO administration: Cmax, Tmax, T1/2, AUCinf, AUClast, F %, Number of Points for Regression. The pharmacokinetic data was described using descriptive statistics such as mean, standard deviation. Additional pharmacokinetic or statistical analysis was performed at the discretion of the contributing scientist, and was documented in the data summary. For comparison purpose, the PK results of oral dosing of po, 25 mg/kg of Acalbrutinib, a FDA approved BTK inhibitor, were obtained using the same methods and shown in the Table below.

The subject of series [3] is CD69 surface expression in primary human B cells. Kind of series: Inhibition of CD69 surface expression in primary human B cells. Type of series: cell-based. As to conditions: B-cell; 1 h pre-incubation, anti-human IgM stimulation 19 hr. The protocol:
Primary human B cells (CD20+, purified by negative selection) were obtained from StemCell Technologies. Prior to experiment, the cells were thawed and washed two times with RPMI growth media supplemented with 10% FBS. The cells were seeded into 24 well plate at a density of 4×10^5 cells/per a well in a total volume of 500 uL. 6 hr after plating, serial dilutions of NW-1-96 were added. Control wells received DMSO only (0.1%). After 1 h pre-incubation with compound, the cells were stimulated for 19 hr with goat anti-human IgM F(ab′)2 (10 μg/mL; ThermoFisher). After stimulation, the cells were fixed by addition of paraformaldehyde to a final concentration of 4% and incubated for 20 min at room temperature. Fixed cells were collected into Eppendorf tubes, centrifuged at 1,000×g and washed three times with 50 mM Tris pH8.0, 100 mM NaCl. After washes, the cells were re-suspended in 100 uL of 50 mM Tris pH8.0, 100 mM NaCl, 0.1% BSA supplemented with 5 ug/mL of FITC-conjugated anti-CD69 antibody (ThermoFisher) and incubated at room temperature for 2 hr. The cells were next washed 3 times with 10 volumes of 50 mM Tris pH8.0, 100 mM NaCl, 0.1% BSA and re-suspended in 150 ul of the same buffer. […] CD69 staining was detected on Synergy Neo2 fluorescent plate reader: […].

A word on the IC50: it is the concentration needed to halve the response being measured. The AUC is concentration integrated over time. Low readings indicate low exposure, high ones high exposure.

T2 sequence (Q06187 whole entry): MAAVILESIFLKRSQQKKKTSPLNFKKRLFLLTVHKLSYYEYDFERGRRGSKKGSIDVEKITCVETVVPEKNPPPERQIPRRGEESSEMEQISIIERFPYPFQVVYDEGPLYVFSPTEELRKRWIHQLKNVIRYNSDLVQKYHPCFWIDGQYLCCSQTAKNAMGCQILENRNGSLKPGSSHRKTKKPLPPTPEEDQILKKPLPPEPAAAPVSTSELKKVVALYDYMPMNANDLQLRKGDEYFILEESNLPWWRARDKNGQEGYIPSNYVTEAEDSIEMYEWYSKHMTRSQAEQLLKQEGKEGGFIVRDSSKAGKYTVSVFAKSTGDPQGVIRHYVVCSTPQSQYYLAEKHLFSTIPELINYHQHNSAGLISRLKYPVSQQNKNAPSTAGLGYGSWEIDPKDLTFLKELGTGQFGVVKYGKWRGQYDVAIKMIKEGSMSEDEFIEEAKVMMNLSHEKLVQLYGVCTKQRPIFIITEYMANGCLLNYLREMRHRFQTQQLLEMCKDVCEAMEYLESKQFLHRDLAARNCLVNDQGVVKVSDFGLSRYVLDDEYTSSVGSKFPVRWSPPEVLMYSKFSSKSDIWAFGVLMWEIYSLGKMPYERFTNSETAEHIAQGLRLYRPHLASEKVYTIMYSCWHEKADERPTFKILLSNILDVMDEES
Chain of BTK (Q06187 whole entry): as above

`C=CC(=O)Nc1cc(Nc2nc(-c3ccnc(N4CCn5c(cc6c5CC(C)(C)C6)C4=O)c3CO)cn(C)c2=O)ccc1N1CCN(C2CCOCC2)C[C@H]1C(F)(F)F` [Example 48-S, N-(5-[[6-(2-[4,4-dimethyl-9-oxo-1,10-diazatricyclo[6.4.0.0^[2,6]]dodeca-2(6),7-dien-10-yl]-3-(hydroxymethyl)pyridin-4-yl)-4-methyl-3-oxopyrazin-2-yl]amino]-2-[(2S)-4-(oxan-4-yl)-2-(trifluoromethyl)piperazin-1-yl]phenyl)prop-2-enamide]: the IC50 is greater than 1000 nM against TXK, 0.08 nM on WT BTK [1], 0.1 nM against BTK and greater than 1000 nM against HER4. For the same compound, the “Conclusion (WT BTK)” value at WT BTK [2] is reported as “Irreversible/covalent inhibition”. The compound further showed an area under the curve (AUC) in “Mice PK study” of 11600 ng·h/mL. Also, the half-life in the series “Mice PK study” was 1 h.

`CC(C)(/C=C(\C#N)C(=O)N1CCC[C@@H](n2nc(-c3ccc(Oc4ccccc4)cc3F)c3c(N)ncnc32)C1)N1CCN(C2COC2)CC1` [PRN-1008, reference compound]: the values for the IC50 (on TXK; at HER4; in series [3]) were 0.48 nM, 3.1 nM and 109 nM, respectively.

For the compound `C=CC(=O)Nc1cc(Nc2nc(-c3ccnc(N4CCc5c(sc6c5CCCC6)C4=O)c3CO)cn(C)c2=O)ccc1N1CCN(C2CCOCC2)C[C@H]1C(F)(F)F` [Example 55-S, N-[5-([6-[3-(hydroxymethyl)-2-[6-oxo-8-thia-5-azatricyclo[7.4.0.0^[2,7]]trideca-1(9), 2(7)-dien-5-yl]pyridin-4-yl]-4-methyl-3-oxopyrazin-2-yl]amino)-2-[(2S)-4-(oxan-4-yl)-2-(trifluoromethyl)piperazin-1-yl]phenyl]prop-2-enamide], the IC50 is greater than 1000 nM against TXK; 0.43 nM on WT BTK [1]; 0.25 nM against BTK; greater than 1000 nM against HER4; 9.4 nM in series [3]. Also, the “Conclusion (WT BTK)” value at WT BTK [2] is given as “Irreversible/covalent inhibition”. The “Selectivity among kinases that contain a Cys homologous to Cys-481 in BTK” value on BTK (BTK versus BMX, TEC, TXK, BLK, HER4, EGFR, HER2) was “excellent selectivity”. In the series “Mice PK study”, the area under the curve (AUC) is 74800 ng·h/mL. Also, in the series “Mice PK study”, the half-life was 1.7 h.
